From US20230124764A1, “LACTOBACILLUS HARBINENSIS AND APPLICATION THEREOF” (priority 2018, published 2023)
≈ marks a conversion by molar mass, not a printed value. Where two headings read alike, the source gives them in different places.

Experiments:
[1] = test system: Lacticaseibacillus casei-01; assay: Antibiotic sensitivity, MIC on antibacterial MRS agar plates; assay type: cell-based; conditions: for MIC: Lacticaseibacillus
Experimental: (§1) According to the criteria for determining bacterial resistance (2012 edition) stipulated by the European Food Safety Agency, antibiotics including ampicillin, vancomycin, gentamicin, kanamycin, streptomycin, erythromycin, clindamycin, tetracycline and chloramphenicol were used to prepare antibacterial stock solutions with a concentration of 5120 μg/mL. They were diluted to the required concentration by a diluent preparation method before use, and were added to the corresponding medium according with certain proportion. 9.0 mL of the modified MRS agar media were added into large test tubes. After sterilizing at 121° C. for 15 min, they were placed in a water bath (50° C.) at a constant temperature for later use. 1.0 mL of the antibacterial diluents were pipetted into the large test tubes, followed by vortexing and mixing immediately. The diluents were then poured into a sterile petri dish, and bacteriostatic plates with a certain drug concentration (μg/mL) were prepared after solidification. For each antibiotics, 8 concentration gradient antibacterial plates were prepared according to a ½ dilution method. […] At the same time, a blank plate without inoculation was used as a control. […] 3 parallel experiments were conducted. The lactic acid bacteria susceptibility result was shown in Table 1 determined according to the relevant standards: […] The second step was the preparation of antibacterial plates: antibiotics including ampicillin, vancomycin, gentamicin, kanamycin, streptomycin, erythromycin, clindamycin, tetracycline and chloramphenicol were used to prepare antibacterial stock solutions at a concentration of […]. The solutions were diluted to the required concentration before use according to a diluent preparation method. 1.0 mL of the antibacterial diluents were pipetted into large test tubes with 9.0 mL of modified MRS agar media, followed by vortexing and mixing immediately. Then, they were poured on sterile plates. After solidification, antibacterial plates with a certain antibiotic concentration (m/mL) were obtained. At the same time, a control plate without antibiotic was prepared. […] At the same time, a blank plate without inoculation was used as a control.

[2] = test system: Schleiferilactobacillus harbinensis M1; assay: as above; assay type: cell-based; conditions: for MIC: Schleiferilactobacillus harbinensis
Experimental: as §1

[3] = CASEI01, against L. casei-01, agar plates, 37° C., 16-20 hours, read-out: MIC value
[4] = against S. harbinensis M1, agar plates, 37° C., 16-20 hours, read-out: MIC value

## CC1(C)S[C@@H]2[C@H](NC(=O)[C@H](N)c3ccccc3)C(=O)N2[C@H]1C(=O)O [ampicillin]
[1]; [3]
  MIC: 1 µg/mL (≈ 2.86 µM)
[2]; [4]
  MIC: 1 µg/mL (≈ 2.86 µM)

## O=C(N[C@H](CO)[C@H](O)c1ccc([N+](=O)[O-])cc1)C(Cl)Cl [chloramphenicol]
[1]; [3]
  MIC: 4 µg/mL (≈ 12.4 µM)
[2]; [4]
  MIC: 2 µg/mL (≈ 6.19 µM)

## CCC[C@@H]1C[C@@H](C(=O)N[C@@H]([C@H]2O[C@H](SC)[C@H](O)[C@@H](O)[C@H]2O)[C@H](C)Cl)N(C)C1 [clindamycin]
[1]; [3]
  MIC: 0.125 µg/mL (≈ 0.294 µM)
[2]; [4]
  MIC: 0.5 µg/mL (≈ 1.18 µM)

## CC[C@H]1OC(=O)[C@H](C)[C@@H](O[C@H]2C[C@@](C)(OC)[C@@H](O)[C@H](C)O2)[C@H](C)[C@@H](O[C@@H]2O[C@H](C)C[C@H](N(C)C)[C@H]2O)[C@](C)(O)C[C@@H](C)C(=O)[C@H](C)[C@@H](O)[C@]1(C)O [erythromycin]
[1]; [3]
  MIC: 0.5 µg/mL (≈ 0.681 µM)
[2]; [4]
  MIC: 0.5 µg/mL (≈ 0.681 µM)

## NC[C@H]1O[C@H](O[C@H]2[C@H](O)[C@@H](O[C@H]3O[C@H](CO)[C@@H](O)[C@H](N)[C@H]3O)[C@H](N)C[C@@H]2N)[C@H](O)[C@@H](O)[C@@H]1O [kanamycin]
[1]; [3]
  MIC: 16 µg/mL (≈ 33 µM)
[2]; [4]
  MIC: 16 µg/mL (≈ 33 µM)

## [H]/N=C(/N)N[C@H]1[C@H](O)[C@@H](O)[C@H](O[C@@H]2O[C@@H](C)[C@](O)(C=O)[C@H]2O[C@@H]2O[C@@H](CO)[C@H](O)[C@@H](O)[C@@H]2NC)[C@@H](N/C(N)=N\[H])[C@@H]1O [streptomycin]
[1]; [3]
  MIC: 16 µg/mL (≈ 27.5 µM)
[2]; [4]
  MIC: 8 µg/mL (≈ 13.8 µM)

## CN(C)[C@@H]1C(O)=C(C(N)=O)C(=O)[C@@]2(O)C(O)=C3C(=O)c4c(O)cccc4[C@@](C)(O)[C@H]3C[C@@H]12 [tetracycline]
[1]; [3]
  MIC: 2 µg/mL (≈ 4.5 µM)
[2]; [4]
  MIC: 2 µg/mL (≈ 4.5 µM)

## CN[C@H](CC(C)C)C(=O)N[C@H]1C(=O)N[C@@H](CC(N)=O)C(=O)N[C@H]2C(=O)N[C@H]3C(=O)N[C@H](C(=O)N[C@H](C(=O)O)c4cc(O)cc(O)c4-c4cc3ccc4O)[C@H](O)c3ccc(c(Cl)c3)Oc3cc2cc(c3O[C@@H]2O[C@H](CO)[C@@H](O)[C@H](O)[C@H]2O[C@H]2C[C@](C)(N)[C@H](O)[C@H](C)O2)Oc2ccc(cc2Cl)[C@H]1O [vancomycin]
[1]; CASEI01, read-out: MIC value
  MIC: 4 µg/mL (≈ 2.76 µM)
[2]; M1, read-out: MIC value
  MIC: 2 µg/mL (≈ 1.38 µM)

## gentamicin
[1]; against L. casei-01, agar plates, 37° C., 16-20 hours
  MIC value: 16 µg/mL
[2]; against S. harbinensis M1, agar plates, 37° C., 16-20 hours
  MIC value: 16 µg/mL
